In brackets after ≈: the same amount, converted by molar mass. Several values for one entry are separate records, joined by “and”; a condition that tells them apart may be missing. Equal entries are not always repeated. Where two headings read alike, the source gives them in different places.
Assays:
[1] = system: Escherichia coli; assay type: cell-based
[2] = system: Streptococcus gordonii; assay type: cell-based
[3] = system: Proteus vulgaris; assay type: cell-based
[4] = system: Bacillus cereus; assay type: cell-based
[5] = system: S. aureus and methicillin-resistant S. aureus (MRSA); test: MIC100, modified NCCLS microbroth dilution (Table 6); assay type: cell-based; conditions: Staphylococcus aureus
[6] = system: Streptococcus agalactiae; assay type: cell-based
[7] = system: Pseudomonas stuarti; assay type: cell-based
[8] = system: E. coli; test: MIC100, modified NCCLS microbroth dilution (Table 6); assay type: cell-based; conditions: Escherichia coli
[9] = system: Klebsiella pneumoniae; assay type: cell-based
[10] = system: human erythrocytes; test: Hemolysis of human erythrocytes (HC50)
[11] = system: K. pneumonia; test: Modified NCCLS microbroth dilution MIC assay; conditions: Klebsiella pneumoniae, read-out: K. pneumonia MIC
[12] = system: Haemophilus influenzae; test: MIC100, clinical isolates of hospital-acquired pathogens (Table 7); assay type: cell-based; conditions: Mueller Hinton+NAD+yeast extract+hematin, in µg/mL
[13] = system: Y. pestis; test: microbe, parasite or virus in culture; assay type: cell-based; conditions: Yersinia pestis, 30 h, read-out: MIC100 Y. pestis (30 hr)
[14] = system: Klebsiella aerogenes; assay type: cell-based
[15] = system: Listeria monocytogenes; assay type: cell-based
[16] = system: Serratia marcescens; assay type: cell-based
[17] = system: E. coli; test: Modified NCCLS microbroth dilution MIC assay; assay type: cell-based; conditions: Escherichia coli
[18] = system: Proteus mirabilis; assay type: cell-based
[19] = system: Staphylococcus epidermidis; assay type: cell-based
[20] = system: Salmonella typhimurium; assay type: cell-based
[21] = system: Candida albicans; test: MIC100, clinical isolates of hospital-acquired pathogens (Table 7); assay type: cell-based; conditions: one table line per isolate, RPMI synthetic medium, in µg/mL
[22] = system: Moraxella catarrhalis; assay type: cell-based
[23] = system: Neisseria sicca; assay type: cell-based
[24] = system: Enterococcus faecalis; assay type: cell-based
[25] = system: B. subtilis; test: Modified NCCLS microbroth dilution MIC assay; conditions: Bacillus subtilis
[26] = system: Streptococcus pneumoniae; test: MIC100, clinical isolates of hospital-acquired pathogens (Table 7); assay type: cell-based
[27] = system: Penicillium funiculosum; test: Antifungal MIC/MFC, NCCLS M38-A; assay type: cell-based
Procedure: (§1) MIC endpoints were determined for A. fumigatus, P. funiculosum, C. globosum and T. virens according to current NCCLS guidelines defined for testing A. fumigatus (NCCLS M38-A, 2002). […] Amphotericin B was included in the screen with C. albicans as a positive control. All MIC testing was done in 96 well microtiter panels using RPMI 1640 (with glutamine and without bicarbonate) broth as a growth media. Incubation was at 35° C., and growth was read at 48, 72, (and for some slow growing fungal species, 96 hours). […] MFC (minimal fungicidal concentrations) endpoints were calculated using a modified methodology based on the NCCLS defined methodology for measuring minimal bactericidal concentrations (MBC). Experimentation to calculate MFCs was undertaken only for those organisms for which an MIC endpoint was satisfactorily calculated. MFCs are defined as the concentration required to reduce the number of viable organisms by at least 90%.

[28] = system: Trichoderma virens; test: Antifungal MIC/MFC, NCCLS M38-A; assay type: cell-based
Procedure: as §1

[29] = system: Chaetomium globosum; test: Antifungal MIC/MFC, NCCLS M38-A; assay type: cell-based
Procedure: as §1

[30] = system: Aspergillus fumigatus; test: Antifungal MIC/MFC, NCCLS M38-A; assay type: cell-based
Procedure: as §1

[31] = system: Staphylococcus aureus; test: MIC100, control microbial agent, NCCLS guidelines; assay type: cell-based; conditions: strain ATCC29213, control organism (Table 5), read-out: MIC100 S. aureus ATCC29213
[32] = system: Bacillus subtilis; assay type: cell-based
[33] = system: Staphylococcus aureus; assay type: cell-based
[34] = system: Staphylococcus saprophyticus; assay type: cell-based
[35] = system: Streptococcus pyogenes; test: MIC100, clinical isolates of hospital-acquired pathogens (Table 7); assay type: cell-based; conditions: Mueller Hinton+2-5% lysed horse blood, in µg/mL
[36] = system: F. tularensis; test: microbe, parasite or virus in culture; assay type: cell-based; conditions: Francisella tularensis
[37] = concentration reducing viable organisms by at least 90%

`NCCc1cc(Br)cc(C#Cc2cccc(C#Cc3cc(Br)cc(CCN)c3)c2)c1` [Compound 3] was tested, and the MIC100 Escherichia coli 6C4468 [1] was 1.7 µg/mL (≈ 3.25 µM), the MIC100 Escherichia coli CIS [1] was 1.7 µg/mL (≈ 3.25 µM) and the MIC100 Escherichia coli D31 [1] was 0.84 µg/mL (≈ 1.61 µM). For the same compound, the MIC100 Streptococcus gordonii [2] was 1.7 µg/mL (≈ 3.25 µM), the MIC100 Proteus vulgaris [3] was 3.4 µg/mL (≈ 6.51 µM) and the MIC100 Bacillus cereus [4] was 1.7 µg/mL (≈ 3.25 µM). The MIC ([5]; ATCC 29213 / MRSA, strain ATCC29213 (Table 6), read-out: MIC100 S. aureus ATCC29213) was 0.5 µg/mL (≈ 0.957 µM), the MIC ([5]; MRSA, methicillin-resistant S. aureus OC2878, read-out: MIC100 MRSA OC2878) was 0.5 µg/mL (≈ 0.957 µM) and the MIC100 Streptococcus agalactiae [6] was 0.4 µg/mL (≈ 0.766 µM). For the same compound, the MIC100 Pseudomonas stuarti [7] was over 6.6 µg/mL, the MIC ([8]; strain ATCC25922, read-out: MIC100 E. coli ATCC25922) was 2 µg/mL (≈ 3.83 µM) and the MIC ([8]; strain OC2530, read-out: MIC100 E. coli OC2530) was 0.5 µg/mL (≈ 0.957 µM). For the same compound, the MIC100 Klebsiella pneumoniae [9] was 1.7 µg/mL (≈ 3.25 µM), the “Hemolysis HC50” value ([10]; human erythrocytes, one hour incubation, 50% hemoglobin release, Table 1) was 75 µg/mL and the HC50 ([10]; human erythrocytes, Table 2) was 75 µg/mL. For the same compound, the “Selectivity HC50/MIC E.coli” value ([10]; ratio of HC50 to E. coli MIC) was 88.2, the MIC [11] was 1.7 µg/mL (≈ 3.25 µM) and the “mic (MIC100) Haemophilus influenzae” value [12] was 4. It also gave an MIC [13] of 4 µg/mL (≈ 7.66 µM), an MIC100 Klebsiella aerogenes [14] of 3.4 µg/mL (≈ 6.51 µM) and an MIC100 Listeria monocytogenes [15] of 1.7 µg/mL (≈ 3.25 µM). For the same compound, the MIC100 Serratia marcescens [16] was 3.4 µg/mL (≈ 6.51 µM), the MIC90 ([17]; read-out: MIC90 E. Coli) was 0.8 µg/mL (≈ 1.53 µM) and the MIC ([17]; 18 to 20 hours incubation, OD 600 nm) was 0.8 µg/mL (≈ 1.53 µM). It also gave an MBC ([17]; E. coli D31, defined as >3 log reduction in bacterial titre) of 0.8 µg/mL (≈ 1.53 µM), an MIC100 Proteus mirabilis [18] of over 6.6 µg/mL and an MIC100 Staphylococcus epidermidis [19] of 0.8 µg/mL (≈ 1.53 µM). The MIC100 Salmonella typhimurium [20] was 3.4 µg/mL (≈ 6.51 µM), the “mic (MIC100) Candida albicans” value [21] was 0.5 and 1 and the MIC100 Moraxella catarrhalis [22] was 0.84 µg/mL (≈ 1.61 µM). For the same compound, the MIC100 Neisseria sicca [23] was 3.4 µg/mL (≈ 6.51 µM), the MIC100 Enterococcus faecalis [24] was 0.84 µg/mL (≈ 1.61 µM) and the MIC ([25]; read-out: B. subtilis MIC) was 1.6 µg/mL (≈ 3.06 µM). For the same compound, the MIC90 ([25]; read-out: MIC90 B. subtilis) was 1.6 µg/mL (≈ 3.06 µM), the “mic (MIC100) Streptococcus pneumoniae” value ([26]; clinical isolates, no phenotype given, Mueller Hinton+2-5% lysed horse blood, in µg/mL) was 2 and the mic (MIC100) Streptococcus pneumoniae ATCC 49619 ([26]; control strain ATCC 49619) was 2 µg/mL. For the same compound, the “mic (MIC100) Streptococcus pneumoniae PEN-R” value ([26]; penicillin-resistant clinical isolates, Mueller Hinton+2-5% lysed horse blood, in µg/mL) was 2 and 1, the MIC Penicillium funiculosum ([27]; RPMI 1640, 35° C.) was 1 µg/mL (≈ 1.91 µM) and the MFC Penicillium funiculosum [27, 37] was 2 µg/mL (≈ 3.83 µM). For the same compound, the “MIC Trichoderma virens” value ([28]; RPMI 1640, 35° C.) was 32/32, the “MFC Trichoderma virens” value [28, 37] was 32/32 and the MIC Chaetomium globosum ([29]; RPMI 1640, 35° C.) was 0.5 µg/mL (≈ 0.957 µM). For the same compound, the MFC Chaetomium globosum [29, 37] was 8 µg/mL (≈ 15.3 µM), the “MIC Aspergillus fumigatus” value ([30]; RPMI 1640, 35° C.) was 32/32 and the “MFC Aspergillus fumigatus” value [30, 37] was 32/32. The MIC [31] was 2 µg/mL (≈ 3.83 µM), the MIC100 Bacillus subtilis [32] was 1.7 µg/mL (≈ 3.25 µM) and the MIC100 Staphylococcus aureus [33] was 1.7 µg/mL (≈ 3.25 µM). The MIC100 Staphylococcus saprophyticus [34] was 0.8 µg/mL (≈ 1.53 µM), the “mic (MIC100) Streptococcus pyogenes” value [35] was 2 and 4 and the MIC ([36]; read-out: MIC100 F. tularensis 17135) was 1 µg/mL (≈ 1.91 µM). The MIC ([36]; read-out: MIC100 F. tularensis 17137) was 1 µg/mL (≈ 1.91 µM).
